{
  "source": "patent US20040220164A1",
  "about": "“Triaza compound immunoregulatory agents” (priority 2001, published 2004)",
  "format_in_all_cases": "cell-based",
  "key": {"[1]": {"target": "CD4 (Homo sapiens, UniProt P01730)", "assay": "Cell surface CD4 expression by flow cytometry (anti-CD4 mAb Leu3a-PE)", "parameters": "To study the effect of the CADA derivatives on surface CD4 antigen expression, MT-4 and SupT1 cells were incubated; endogenous in cells; host or cells: MT-4, SupT1, PBMC", "conditions": "for CD4 cell surface antigen expression: percentage of positive cells, unit not given; for surface CD4 antigen expression: CADA 3.2 μM; for percentage of cell surface CD4 expression: ATA 24 μM, PMA 8 nM (FIG. 4)", "how_it_was_run": "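MT-4, SupT1 cells and PBMCs were exposed at 37° C to CADA hydrochloride (3.2 or 16 μM) for 20 min to 4 days, with ATA (24 μM) and PMA (8 nM) as comparators in SupT1. Cells were stained with PE-anti-CD4 (Leu3a) for 20 min at 4° C and fixed in 1% formaldehyde. Read-out was flow cytometry as % positive cells and MFI.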"}, "[2]": {"test_system": "HIV-1 strain RF", "assay": "Anti-HIV-1 assay (p24 Ag ELISA)", "conditions": "for IC50: read-out: IC50 against HIV-1 RF; for p24 viral core antigen in supernatant: MT-4, RF", "description": "(§1) The antiviral activity of CADA against HIV-1 and RHV-7 was investigated. PBMCs and […] cell-depleted PBMCs (removed with CD8 magnetic beads; Dynal AS, Oslo, Norway), previously activated with purified PHA (2 μg/ml) and rhIL-2 (1 ng/ml) for 3 days, were pelleted and exposed to HIV-1 (1 ng p24 Ag per 10^6 cells) for 2 hours at 370C. Then the cells were washed three times with warm medium and cultured in complete medium containing rhIL-2 (1 ng/ml) in the presence or absence of different concentrations of CADA hydrochloride. The anti-HIV-1 assays were also performed in MT-4 and SupT1 cells. CADA hydrochloride was diluted in the plates, then the MT-4 cells or SupT1 cells were added and finally the T-tropic HIV-1 strains. The supernatant was collected at day 5 for MT-4 cells, day 8 for SupT1 cells and day 12 for PBMCs, and stored at −20° C. and analyzed for HIV-1 core antigen by p24 Ag ELISA (NEN, Brussels, Belgium). The SupT1 cells were refreshed on day 4, and half of the medium and cells were replaced and fresh CADA-free medium was added. For the PBMCs, fresh culture medium was added at day 6 containing rhIL-2 (but no CADA). For the anti-HHV-7 assays in PBMCs, CADA hydrochloride was diluted in a plate, 2×10˜cells were added and then HHV-7 (KHR strain) was added in complete medium containing rhIL-2 (1 ng/ml). Fresh culture medium was added again at day 6 containing rhIL-2 (but no CADA). The same infection protocol was used for the SupT1 cells, but without rhIL-2. The SupT1 cells were refreshed on day 4 and day 8, half of the medium and the cells were replaced, and fresh medium without CADA was added. The HHV-7 antigen expression was monitored (at day 12) with a specific mAb to HHV-7 (RK-4) (Advanced Biotechnologies, Columbia, Md.) by flow cytometry, as described previously (Thang, Y., et al., Antiviral Res. 43:23-35 (1999)).\nTable 4 presents the results for MT-4 cells pretreated with CADA for 1 day at 8.1 μM and then infected with the HIV-1 strain NL4.3 or RF in the presence or absence of CADA. […] As three CD4 binding events are needed to efficiently activate HIV-1 Env trimers (Layne, S. P., et al., Nature 346: 602-605 (1990)), multimeric CD4 binding is required for HIV infection, further confirming that receptor density plays a crucial role in the efficiency of viral infectivity (Platt, E. J., et al., J. Virol. 71: 883-890 (1997)). […] Primary HIV isolates seem to be much more dependent on the level of CD4 expression (Kabat; D., et al., J. Virol. 68:2570-2577 (1994)). […] Although CD4-independent viruses are described (Hofflian, T. L., et al., Proc. Natl. Acad. Sci. U.S.A. 96: 63 59-6364 (1999)), these are much more sensitive to neutralization by antibodies, which explains the rarity of CD4-independent wild-type HIV variants (Kolchinski, P., et al., J. Virol. 75: 204 1-2050 (2001))."}, "[3]": {"test_system": "HHV-7 (KHR strain)", "assay": "Anti-HHV-7 assay (HHV-7 antigen expression, flow cytometry, day 12)", "description": "as §1"}},
  "note": "Where two headings read alike, the source gives them in different places.",
  "data": [
    {"smiles": "C=C1CN(S(=O)(=O)c2ccc(C)cc2)CCCN(Cc2ccccc2)CCCN(S(=O)(=O)c2ccc(C)cc2)C1", "note": "[CADA]", "values": [
      {"measurement": "CD4 cell surface antigen expression", "setting": "[1]; MT-4 T-cells, CADA 16 μM, 4 days", "result": 6.3},
      {"measurement": "surface CD4 antigen expression", "setting": "[1]; MT-4 cells, 1 day, control 95.6%", "result": 4.9, "unit": "%"},
      {"measurement": "surface CD4 antigen expression", "setting": "[1]; MT-4 cells, 4 days, control 95.6%", "result": 6.3, "unit": "%"},
      {"measurement": "percentage of CD4 expression", "setting": "[1]; PBMCs, CADA 16 μM, 4 days", "result": 0.2, "unit": "%"},
      {"measurement": "CD4 cell surface antigen expression", "setting": "[1]; PBMCs, CADA 16 μM, 4 days", "result": 0.2},
      {"measurement": "CD4 cell surface antigen expression", "setting": "[1]; SupT1 T-cells, CADA 16 μM, 4 days", "result": 1.2},
      {"measurement": "percentage of cell surface CD4 expression", "setting": "[1]; SupT1 cells, 20 minutes, CADA 16 μM", "result": "still as high as in the untreated cells"},
      {"measurement": "percentage of cell surface CD4 expression", "setting": "[1]; SupT1 cells, 4 hours, CADA 16 μM", "result": "still as high as in the untreated cells"},
      {"measurement": "percentage of cell surface CD4 expression", "setting": "[1]; SupT1 cells, 1 day, CADA 16 μM", "result": "decrease became clearly visible"},
      {"measurement": "percentage of cell surface CD4 expression", "setting": "[1]; SupT1 cells, 4 days, CADA 16 μM", "result": 1.2, "unit": "%"},
      {"measurement": "surface CD4 antigen expression", "setting": "[1]; SupT1 cells, 1 day, control 96.4%", "result": 46.4, "unit": "%"},
      {"measurement": "surface CD4 antigen expression", "setting": "[1]; SupT1 cells, 4 days, control 96.4%", "result": 1.2, "unit": "%"},
      {"measurement": "effect of human serum on CD4 down-modulation induced by CADA", "setting": "[1]; presence of human serum", "result": "did not affect"},
      {"measurement": "IC50", "setting": "[2]; Human immunodeficiency virus 1, MT4, MT-4 cells", "result": 0.9, "unit": "µM"},
      {"measurement": "IC50", "setting": "[2]; Human immunodeficiency virus 1, PBMC", "result": 1.9, "unit": "µM"},
      {"measurement": "IC50", "setting": "[2]; Human immunodeficiency virus 1, SUP-T1, SupT1 cells", "result": 1.8, "unit": "µM"},
      {"measurement": "p24 viral core antigen in supernatant", "setting": "[2]; cells pre-treated with CADA hydrochloride 8.1 μM 24 hours, medium without CADA after infection, untreated control 100002", "result": 42853, "unit": "pg/mL"},
      {"measurement": "p24 viral core antigen in supernatant", "setting": "[2]; not pre-treated, CADA 0.13 μM", "result": 75118, "unit": "pg/mL"},
      {"measurement": "p24 viral core antigen in supernatant", "setting": "[2]; not pre-treated, CADA 0.6 μM", "result": 56139, "unit": "pg/mL"},
      {"measurement": "p24 viral core antigen in supernatant", "setting": "[2]; not pre-treated, CADA 3.2 μM", "result": "<5", "unit": "pg/mL"},
      {"measurement": "p24 viral core antigen in supernatant", "setting": "[2]; pre-treated (CADA 8.1 μM, 24 hours), CADA 0.13 μM after infection", "result": 35894, "unit": "pg/mL"},
      {"measurement": "p24 viral core antigen in supernatant", "setting": "[2]; pre-treated (CADA 8.1 μM, 24 hours), CADA 0.6 μM after infection", "result": "<5", "unit": "pg/mL"},
      {"measurement": "p24 viral core antigen in supernatant", "setting": "[2]; pre-treated (CADA 8.1 μM, 24 hours), CADA 3.2 μM after infection", "result": "<5", "unit": "pg/mL"},
      {"measurement": "IC50", "setting": "[3]; PBMC, CD8+ depleted PBMC, read-out: IC50 against HHV-7", "result": 0.9, "unit": "µM"},
      {"measurement": "IC50", "setting": "[3]; PBMC, read-out: IC50 against HHV-7", "result": 1.5, "unit": "µM"},
      {"measurement": "IC50", "setting": "[3]; SUP-T1, SupT1 cells, PBMCs and CD8+ T-cell depleted PBMCs, read-out: inhibitory concentration (IC50) for HHV-7, range over cell types", "result": "0.3 to 1.5", "unit": "µM"},
      {"measurement": "IC50", "setting": "[3]; SUP-T1, SupT1 cells, read-out: IC50 against HHV-7", "result": 0.3, "unit": "µM"}
    ]},
    {"smiles": "C=C1CN(S(=O)(=O)c2ccc(C)cc2)CCCN(CC2CCCCC2)CCCN(S(=O)(=O)c2ccc(C)cc2)C1", "note": "[QJ028]", "values": [
      {"measurement": "down-regulation of CD4 expression (in words)", "setting": "[1]", "result": "down-regulate CD4 expression"}
    ]},
    {"smiles": "C=C1CN(S(=O)(=O)c2ccc(C)cc2)CCCN(C(=O)OCCC)CCCN(S(=O)(=O)c2ccc(C)cc2)C1", "note": "[QJ033]", "values": [
      {"measurement": "down-regulation of CD4 expression (in words)", "setting": "[1]", "result": "down-regulate CD4 expression"}
    ]}
  ]
}
